These are literature values, as cited in patent US7374751B1, “QS-21 and IL-12 as an adjuvant combination” (Wyeth Holdings Corporation, priority 2001, dated 2008).

For the data set the following is noted: clinical data, F/QS-21 formulation, immediately after injection.

With QS-21, the local acute toxicity entry was “associated with local acute toxicity immediately after injection”.
